Results as given in PubChem BioAssay AID2060508 (Molecular Pharmacology Branch, DTP, NCI, 2025).
pIC50: −log10 of the molar value.

System: 454973-116-R2-J3-PDC spheroids, viability, % test/control
Assay: Anticancer human tumor 454973-116-R2-J3-PDC patient-derived pancreatic carcinoma cell line growth inhibition [GQUAD]
Conditions: spheroids with HUVEC and MSC; for pIC50: curve of first compound; for viability, T/C: stronger effect = lower value
How it was run: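 Viability of tumor cells grown as complex spheroids with endothelial and stromal cells, exposed to drug combinations. Top concentration at or near clinical Cmax (else 10 microM), diluted in half-log increments.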

[1] = second compound 0.0316 µM, first compound 0.0316 µM
[2] = second compound 0.0316 µM, first compound 0.1 µM
[3] = second compound 0.0316 µM, first compound 0.316 µM
[4] = second compound 0.0316 µM, first compound 1 µM
[5] = second compound 0.0316 µM, first compound 3.16 µM
[6] = second compound 0.0316 µM, first compound 10 µM
[7] = second compound 0.1 µM, first compound 0.0316 µM
[8] = second compound 0.1 µM, first compound 0.1 µM
[9] = second compound 0.1 µM, first compound 0.316 µM
[10] = second compound 0.1 µM, first compound 1 µM
[11] = second compound 0.1 µM, first compound 3.16 µM
[12] = second compound 0.1 µM, first compound 10 µM
[13] = second compound 0.316 µM, first compound 0.0316 µM
[14] = second compound 0.316 µM, first compound 0.1 µM
[15] = second compound 0.316 µM, first compound 0.316 µM
[16] = second compound 0.316 µM, first compound 1 µM
[17] = second compound 0.316 µM, first compound 3.16 µM
[18] = second compound 0.316 µM, first compound 10 µM
[19] = second compound 1 µM, first compound 0.0316 µM
[20] = second compound 1 µM, first compound 0.1 µM
[21] = second compound 1 µM, first compound 0.316 µM
[22] = second compound 1 µM, first compound 1 µM
[23] = second compound 1 µM, first compound 3.16 µM
[24] = second compound 1 µM, first compound 10 µM
[25] = second compound 3.16 µM, first compound 0.0316 µM
[26] = second compound 3.16 µM, first compound 0.1 µM
[27] = second compound 3.16 µM, first compound 0.316 µM
[28] = second compound 3.16 µM, first compound 1 µM
[29] = second compound 3.16 µM, first compound 3.16 µM
[30] = second compound 3.16 µM, first compound 10 µM
[31] = second compound 10 µM, first compound 0.0316 µM
[32] = second compound 10 µM, first compound 0.1 µM
[33] = second compound 10 µM, first compound 0.316 µM
[34] = second compound 10 µM, first compound 1 µM
[35] = second compound 10 µM, first compound 3.16 µM
[36] = second compound 10 µM, first compound 10 µM
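Also: spheroids exposed to compounds for seven days.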
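For viability, T/C in this document: 100% = DMSO vehicle control viability.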

## CC(C)n1c(=O)n(C)c2cnc3cc(F)c(-c4ccc(OCCCN5CCCCC5)nc4)cc3c21 + Cc1[nH]c2ccc(F)cc2c1-c1nc2c3cccnc3c3ncccc3c2[nH]1
Second compound 0.0316 µM
  pIC50: < 5.00
Second compound 0.1 µM
  pIC50: < 5.00
Second compound 0.316 µM
  pIC50: < 5.00
Second compound 1 µM
  pIC50: < 5.00
Second compound 3.16 µM
  pIC50: < 5.00
Second compound 10 µM
  pIC50: < 5.00
[1]
  viability, T/C: 112%
[2]
  viability, T/C: 101%
[3]
  viability, T/C: 105%
[4]
  viability, T/C: 101%
[5]
  viability, T/C: 95.8%
[6]
  viability, T/C: 67.5%
[7]
  viability, T/C: 95.8%
[8]
  viability, T/C: 107%
[9]
  viability, T/C: 109%
[10]
  viability, T/C: 102%
[11]
  viability, T/C: 92.5%
[12]
  viability, T/C: 63.7%
[13]
  viability, T/C: 110%
[14]
  viability, T/C: 99%
[15]
  viability, T/C: 111%
[16]
  viability, T/C: 117%
[17]
  viability, T/C: 83.9%
[18]
  viability, T/C: 65%
[19]
  viability, T/C: 94.8%
[20]
  viability, T/C: 101%
[21]
  viability, T/C: 112%
[22]
  viability, T/C: 93.3%
[23]
  viability, T/C: 85.2%
[24]
  viability, T/C: 61.5%
[25]
  viability, T/C: 89.1%
[26]
  viability, T/C: 101%
[27]
  viability, T/C: 96.8%
[28]
  viability, T/C: 97.5%
[29]
  viability, T/C: 96%
[30]
  viability, T/C: 66%
[31]
  viability, T/C: 101%
[32]
  viability, T/C: 91.9%
[33]
  viability, T/C: 88.3%
[34]
  viability, T/C: 93.7%
[35]
  viability, T/C: 79.9%
[36]
  viability, T/C: 59.7%

## CC1COCCN1c1cc(-c2ccnn2C)c2ccnc(-c3ccn[nH]3)c2n1 (stereo not drawn) + Cc1[nH]c2ccc(F)cc2c1-c1nc2c3cccnc3c3ncccc3c2[nH]1
Second compound 0.0316 µM
  pIC50: 6.79
Second compound 0.1 µM
  pIC50: 6.77
Second compound 0.316 µM
  pIC50: 6.77
Second compound 1 µM
  pIC50: 6.80
Second compound 3.16 µM
  pIC50: 6.94
Second compound 10 µM
  pIC50: 6.93
[1]
  viability, T/C: 97.4%
[2]
  viability, T/C: 66.8%
[3]
  viability, T/C: 26.6%
[4]
  viability, T/C: 23.2%
[5]
  viability, T/C: 26.3%
[6]
  viability, T/C: 23.6%
[7]
  viability, T/C: 98.1%
[8]
  viability, T/C: 67.1%
[9]
  viability, T/C: 30.6%
[10]
  viability, T/C: 23.3%
[11]
  viability, T/C: 24%
[12]
  viability, T/C: 26.4%
[13]
  viability, T/C: 97.8%
[14]
  viability, T/C: 65.8%
[15]
  viability, T/C: 31%
[16]
  viability, T/C: 20.6%
[17]
  viability, T/C: 23.4%
[18]
  viability, T/C: 21.9%
[19]
  viability, T/C: 87%
[20]
  viability, T/C: 62%
[21]
  viability, T/C: 32.2%
[22]
  viability, T/C: 18.7%
[23]
  viability, T/C: 20.3%
[24]
  viability, T/C: 22.8%
[25]
  viability, T/C: 92.2%
[26]
  viability, T/C: 52.9%
[27]
  viability, T/C: 30.2%
[28]
  viability, T/C: 20.8%
[29]
  viability, T/C: 23.5%
[30]
  viability, T/C: 24.9%
[31]
  viability, T/C: 81.6%
[32]
  viability, T/C: 53.1%
[33]
  viability, T/C: 29.8%
[34]
  viability, T/C: 18.3%
[35]
  viability, T/C: 23.1%
[36]
  viability, T/C: 22.6%

## COc1ncnc(C2CC2)c1-c1ncc2cnn(Cc3ccc(-c4nc(C(F)(F)F)cn4C(C)C)cc3)c2n1 + Cc1cnc(CNC(=O)c2c(=O)c3ccc(N4CCCN(C)CC4)nc3n3c2sc2ccccc23)cn1
Second compound 0.0316 µM
  pIC50: < 5.00
Second compound 0.1 µM
  pIC50: < 5.00
Second compound 0.316 µM
  pIC50: < 5.00
Second compound 1 µM
  pIC50: < 5.00
Second compound 3.16 µM
  pIC50: < 5.00
Second compound 10 µM
  pIC50: > 7.50
[1]
  viability, T/C: 96%
[2]
  viability, T/C: 94%
[3]
  viability, T/C: 87.8%
[4]
  viability, T/C: 104%
[5]
  viability, T/C: 88.9%
[6]
  viability, T/C: 86.9%
[7]
  viability, T/C: 82.1%
[8]
  viability, T/C: 69.4%
[9]
  viability, T/C: 74.7%
[10]
  viability, T/C: 71.4%
[11]
  viability, T/C: 69%
[12]
  viability, T/C: 63.4%
[13]
  viability, T/C: 65.4%
[14]
  viability, T/C: 61.9%
[15]
  viability, T/C: 59.5%
[16]
  viability, T/C: 69.2%
[17]
  viability, T/C: 60%
[18]
  viability, T/C: 62%
[19]
  viability, T/C: 55.3%
[20]
  viability, T/C: 69.4%
[21]
  viability, T/C: 57.4%
[22]
  viability, T/C: 63.2%
[23]
  viability, T/C: 61.4%
[24]
  viability, T/C: 58.4%
[25]
  viability, T/C: 61.7%
[26]
  viability, T/C: 58.8%
[27]
  viability, T/C: 61.7%
[28]
  viability, T/C: 57.8%
[29]
  viability, T/C: 67.8%
[30]
  viability, T/C: 54%
[31]
  viability, T/C: 0.22%
[32]
  viability, T/C: 19.6%
[33]
  viability, T/C: 50.4%
[34]
  viability, T/C: 40.6%
[35]
  viability, T/C: 0.38%
[36]
  viability, T/C: 0.3%

## CC(=O)O[C@H]1C(=O)[C@@]2(C)[C@H]([C@H](OC(=O)c3ccccc3)[C@]3(O)C[C@H](OC(=O)[C@H](O)[C@@H](NC(=O)c4ccccc4)c4ccccc4)C(C)=C1C3(C)C)[C@]1(OC(C)=O)CO[C@@H]1C[C@@H]2O + Cc1cnc(CNC(=O)c2c(=O)c3ccc(N4CCCN(C)CC4)nc3n3c2sc2ccccc23)cn1
Second compound 0.0316 µM
  pIC50: > 7.50
Second compound 0.1 µM
  pIC50: > 7.50
Second compound 0.316 µM
  pIC50: > 7.50
Second compound 1 µM
  pIC50: > 7.50
Second compound 3.16 µM
  pIC50: > 7.50
Second compound 10 µM
  pIC50: > 7.50
[1]
  viability, T/C: 17.2%
[2]
  viability, T/C: 12.7%
[3]
  viability, T/C: 10.7%
[4]
  viability, T/C: 7.9%
[5]
  viability, T/C: 9.07%
[6]
  viability, T/C: 11.3%
[7]
  viability, T/C: 20.6%
[8]
  viability, T/C: 16.3%
[9]
  viability, T/C: 9.56%
[10]
  viability, T/C: 9.77%
[11]
  viability, T/C: 11.2%
[12]
  viability, T/C: 15.5%
[13]
  viability, T/C: 27.5%
[14]
  viability, T/C: 17.2%
[15]
  viability, T/C: 17.9%
[16]
  viability, T/C: 15.7%
[17]
  viability, T/C: 15.3%
[18]
  viability, T/C: 19.6%
[19]
  viability, T/C: 33.9%
[20]
  viability, T/C: 28.3%
[21]
  viability, T/C: 23.3%
[22]
  viability, T/C: 25.7%
[23]
  viability, T/C: 24.8%
[24]
  viability, T/C: 30.4%
[25]
  viability, T/C: 42.4%
[26]
  viability, T/C: 36.2%
[27]
  viability, T/C: 32.1%
[28]
  viability, T/C: 26.5%
[29]
  viability, T/C: 34.1%
[30]
  viability, T/C: 37.1%
[31]
  viability, T/C: 0.12%
[32]
  viability, T/C: 1.08%
[33]
  viability, T/C: 0.19%
[34]
  viability, T/C: 0.17%
[35]
  viability, T/C: 0.19%
[36]
  viability, T/C: 0.21%
